Consider 7 compounds from ChEMBL document CHEMBL1806411, “Opioid δ₁ receptor antagonist 7-benzylidenenaltrexone as an effective resistance reverser for chloroquine-resistant Plasmodium chabaudi” (Bioorg Med Chem Lett, 2011).

Molecules are shown by their SMILES. Activity calls are given as the source filed them. No cut-off for these calls is given here.

Common to all, as to assay type: functional, organism-based
For test [1], the system named is Plasmodium chabaudi. Put plainly: Reversal of chloroquine-resistance in Plasmodium chabaudi infected in mouse at 10 mg/kg, po coadministered with chloroquine 3 mg/kg, iv administered for 3 consecutive days measured on day 4.
Test [2] has as its system Plasmodium chabaudi. Put plainly: Antimalarial activity against chloroquine-resistant Plasmodium chabaudi infected in mouse assessed as parasitemia at 10 mg/kg, po administered for 3 consecutive days. The arrangement: dose 10 mg/kg.
The test system of test [3] is Plasmodium chabaudi. Put plainly: Reversal of chloroquine-resistance in Plasmodium chabaudi infected in mouse at 20 mg/kg, po coadministered with chloroquine 3 mg/kg, iv administered for 3 consecutive days measured on day 4.

Turning to `CCN(CC)CCCC(C)Nc1ccnc2cc(Cl)ccc12` (stereo not drawn), the outcome in the test with Plasmodium chabaudi [1] and in the test with Plasmodium chabaudi [2] was inactive. `O=C1CC[C@@]2(O)[C@H]3Cc4ccc(O)c5c4[C@@]2(CCN3CC2CC2)[C@H]1O5`: the result in the test on Plasmodium chabaudi [1] was Active. In addition, the result with Plasmodium chabaudi [2] was inactive. On to `Oc1ccc2c3c1O[C@H]1c4[nH]c5c(c4C[C@@]4(O)[C@@H](C2)N(CC2CC2)CC[C@]314)C[C@@]1(O)[C@H]2Cc3ccc(O)c4c3[C@@]1(CCN2CC1CC1)[C@H]5O4`, for which the result in the test with Plasmodium chabaudi [1] was Active. The result in the test on Plasmodium chabaudi [2] was inactive. In the case of `Oc1ccc2c3c1O[C@H]1c4[nH]c5ccccc5c4C[C@@]4(O)[C@@H](C2)N(CC2CC2)CC[C@]314`, the result in the test on Plasmodium chabaudi [1] was Active. Moreover, the result with Plasmodium chabaudi [2] was inactive. Consider `Oc1ccc2c3c1O[C@H]1c4oc5ccccc5c4C[C@@]4(O)[C@@H](C2)N(CC2CC2)CC[C@]314`, for which the result with Plasmodium chabaudi [1] and with Plasmodium chabaudi [2] was Active. Turning to `COc1ccc(CCN(C)CCCC(C#N)(c2ccc(OC)c(OC)c2)C(C)C)cc1OC` (stereo not drawn), in the test with Plasmodium chabaudi [3], the outcome was Active.

For `O=C1/C(=C/c2ccccc2)C[C@@]2(O)[C@H]3Cc4ccc(O)c5c4[C@@]2(CCN3CC2CC2)[C@H]1O5`, the outcome with Plasmodium chabaudi [1] was Active. Also, the result in the test with Plasmodium chabaudi [2] was inactive.
